# Reference: patent US20240287139A1, “A NOVEL COMPOUND ACTING AGAINST A SELECT GROUP OF BACTERIA” (priority 2021, published 2024)
# Several values for one entry are separate records, joined by “and”; a condition that tells them apart may be missing. Equal values may be shown once. *1 amine or outer side, *2 acyl side, *3 side chain or, on linkers, in order; H or OH if unused. Where a SMILES comes first, the peptide text is derived from it. Bridges are numbered along the chain shown (N, C = ends). [ ]: non-standard residue; d: D form. The star is where a group is joined. ξ: configuration not given here. ξThr(3R)(O-yl) = C[C@@H](O[*:3])C(N[*:1])C(=O)[*:2]; βAsp = O=C(O)[C@H](CC(=O)[*:2])N[*:1]; His(π-Me) = Cn1cncc1C[C@H](N)C(=O)O; For = O=C*
# Tests used:
# [1] = system: M. tuberculosis GyrA D94N mutant; type: cell-based
# [2] = system: M. tuberculosis H37Rv mc^26020
# [3] = system: M. tuberculosis bacA mutants (L469P, L470P and S577R; bacA deletion mutant); type: cell-based
# MtbGyrase GyrA mutants = type: biochemical, M. tuberculosis
smiles,measurement,setting,value
C[C@H]1OC(=O)C[C@@H](C(=O)O)NC(=O)[C@H](CO)NC(=O)[C@@H](CCCNC(=N)N)NC(=O)CNC(=O)[C@H](Cc2ccccc2)NC(=O)[C@@H](CO)NC(=O)C[C@@H](C(=O)O)NC(=O)[C@H](Cc2cncn2C)NC(=O)C1NC(=O)[C@@H](CCCNC(=N)N)NC(=O)[C@@H](NC(=O)[C@H](Cc1c[nH]c2ccccc12)NC=O)[C@@H](C)O (stereo partly drawn) [compound of Formula IV] (For-WT[dR][ξThr(3R)(O-yl)][His(π-Me)][βAsp][dS]FG[dR]SD-OH; ester 4-12),MIC,[1],0.25 µg/mL
same,frequency of highly resistant mutants,[2],6.1×10^−9 to 1.7×10^−8
same,frequency of resistant mutants,[2],7.2×10^−6 to 1.6×10^−5
same,MIC against bacA mutants,[3],8 to 16 µg/mL and 8 µg/mL
same,MIC against bacA mutants as multiple of wild-type MIC,[3],32-64 ×MIC and 32 ×MIC
same,drug-induced cleavage with MtbGyrAP353L and MtbGyrAA32V,MtbGyrase GyrA mutants,relatively strong resistance
same,reduced cleavage compared to wildtype MtbGyrase,MtbGyrase GyrA mutants,5 to 100 fold
